System: LPS induced TNF release
Assay: Lipopolysaccharide-Activated THP1 Cell TNF Production Assay
Type: cell-based
Conditions: Homo sapiens, THP-1
Method: Lipopolysaccharide-Activated THP1 Cell TNF Production Assay
THP1 cells are resuspended in fresh THP1 media (RPMI 1640, 10% heat-inactivated FBS, 1×PGS, 1×NEAA, plus 30 μM βME) at a concentration of 1E6/mL. One hundred microliters of cells per well are plated in a polystyrene 96-well tissue culture. One microgram per mL of bacterial LPS is prepared in THP1 media and is transferred to the wells. Test compounds are dissolved in 100% DMSO and are serially diluted 3 fold in a polypropylene 96-well microtiter plate (drug plate). HI control and LO control wells contain only DMSO. One microliter of test compound from the drug plate followed by 10 μL of LPS are transferred to the cell plate. The treated cells are induced to synthesize and secrete TNF-α at 37° C. for 3 h. Forty microliters of conditioned media are transferred to a 96-well polypropylene plate containing 110 μL of ECL buffer (50 mM Tris-HCl pH 8.0, 100 mM NaCl, 0.05% Tween 20, 0.05% NaN3 and 1%FBS) supplemented with 0.44 nM MAB610 monoclonal Ab (R&D Systems), 0.34 nM ruthenylated AF210NA polyclonal Ab (R&D Systems) and 44 μg/mL sheep anti-mouse M280 Dynabeads (Dynal). After a 2 h incubation at room temperature with shaking, the reaction is read on the ECL M8 Instrument (IGEN Inc.). A low voltage is applied to the ruthenylated TNF-α immune complexes, which in the presence of TPA (the active component in Origlo), results in a cyclical redox reaction generating light at […]. The amount of secreted TNF-α in the presence of compound compared with that in the presence of DMSO vehicle alone (HI control) is calculated using the formula: % control (POC)=(cpd−average LO)/(average HI−average LO)*100. Data (consisting of POC and inhibitor concentration in μM) is fitted to a 4-parameter equation (y=A+((B−A)/(1+((x/C)^D))), where A is the minimum y (POC) value, B is the maximum y (POC), C is the x (cpd concentration) at the point of inflection and D is the slope factor) using a Levenburg-Marquardt non-linear regression algorithm.

Row | Compound | IC50 [µM]
1 | Nc1c(-c2ccccc2)nc2n(c1=O)CCCN2c1ccnc(NCCc2ccccc2)n1 [Example 18, 3-Amino-9-(2-phenethylamino-pyrimidin-4-yl) -2-phenyl-6,7,8,9-tetrahydro-pyrimido[1,2-a]pyrimidin-4-one] | ≤ 20
2 | CC(C)NCc1cccc(CC(C)Nc2nccc(N3CCCn4c3nc(-c3ccccc3)cc4=O)n2)c1 (centres unmarked) [Example 19, 9-(2-{2-[3-(Isopropylamino-methyl)-phenyl]-1-methyl-ethylamino}-pyrimidin-4-yl) -2-phenyl-6,7,8,9-tetrahydro-pyrimido[1,2-a]pyrimidin-4-one] | ≤ 20
3 | O=c1cc(-c2ccccc2)nc2n1CCCN2c1ccnc(NCc2ccccc2)n1 [Example 29, 9-(2-{2-(benzyl)amino}-pyrimidin-4-yl)-2-phenyl-6,7,8,9-tetrahydro-pyrimido[1,2-a]pyrimidin-4-one] | ≤ 20
4 | Nc1nccc(N2CCCn3c2nc(-c2ccccc2)cc3=O)n1 [Example 38, 9-(2-{2-amino}-pyrimidin-4-yl)-2-phenyl-6,7,8,9-tetrahydro-pyrimido[1,2-a]pyrimidin-4-one] | ≤ 20
5 | CC(Cc1cccc(CN)c1)Nc1nccc(N2CCCn3c2nc(-c2ccccc2)cc3=O)n1 (centres unmarked) [Example 44, 9-{2-[2-(3-Aminomethyl-phenyl)-1-methyl-ethylamino]-pyrimidin-4-yl}-2-phenyl-6,7,8,9-tetrahydro-pyrimido[1,2-a]pyrimidin-4-one] | ≤ 20
6 | CC(Cc1cccc(CO)c1)Nc1nccc(N2CCCn3c2nc(-c2ccccc2)cc3=O)n1 (centres unmarked) [Example 47, 9-{2-[2-(3-Hydroxymethyl-phenyl)-1-methyl-ethylamino]-pyrimidin-4-yl}-2-phenyl-6,7,8,9-tetrahydro-pyrimido[1,2-a]pyrimidin-4-one] | ≤ 20
7 | C[C@@H](Cc1cccc(CN)c1)Nc1nccc(N2CCCn3c2nc(-c2ccccc2)cc3=O)n1 [Example 49, 9-{2-[2-(3-Aminomethyl-phenyl)-1(S)-methyl-ethylamino]-pyrimidin-4-yl}-2-phenyl-6,7,8,9-tetrahydro-pyrimido[1,2-a]pyrimidin-4-one] | ≤ 20
8 | CC(C)NCCC1CN(c2ccnc(NCCc3ccccc3)n2)c2nc(-c3ccccc3)cc(=O)n2C1 (centres unmarked) [Example 50, 7-(2-Isopropylamino-ethyl)-9-(2-phenethylamino-pyrimidin-4-yl) -2-phenyl-6,7,8,9-tetrahydro-pyrimido[1,2-a]pyrimidin-4-one] | ≤ 20
9 | NCCC1CN(c2ccnc(NCCc3ccccc3)n2)c2nc(-c3ccccc3)cc(=O)n2C1 (centres unmarked) [Example 51, 7-(2-Amino-ethyl)-9-(2-phenethylamino-pyrimidin-4-yl)-2-phenyl-6,7,8,9-tetrahydro-pyrimido[1,2-a]pyrimidin-4-one] | ≤ 20
10 | O=C(NCCC1CN(c2ccnc(NCCc3ccccc3)n2)c2nc(-c3ccccc3)cc(=O)n2C1)OCc1ccccc1 (centres unmarked) [Example 52, {2-[6-Oxo-1-(2-phenethylamino-pyrimidin-4-yl)-8-phenyl-1,3,4,6-tetrahydro-2H-pyrimido[1,2-a]pyrimidin-3-yl]-ethyl}-carbamic acid benzyl ester] | ≤ 20
11 | CCOC(=O)CCC1CN(c2ccnc(NCCc3ccccc3)n2)c2nc(-c3ccccc3)cc(=O)n2C1 (centres unmarked) [Example 54, 3-[6-oxo-1-(2-phenethylamino-pyrimidin-4-yl)-8-phenyl-1,3,4,6-tetrahydro-2H-pyrimido[1,2-a]pyrimidin-3-yl]-propionic acid ethyl ester] | ≤ 20
12 | O=C(O)CCC1CN(c2ccnc(NCCc3ccccc3)n2)c2nc(-c3ccccc3)cc(=O)n2C1 (centres unmarked) [Example 55, 3-[6-Oxo-1-(2-phenethylamino-pyrimidin-4-yl)-8-phenyl-1,3,4,6-tetrahydro-2H-pyrimido[1,2-a]pyrimidin-3-yl]-propionic acid] | ≤ 20
13 | CC(C)NC(C)c1ccc(CCNc2nccc(N3CCC(=O)N4CC=C(c5ccccc5)N=C43)n2)cc1 (centres unmarked) [Example 62, 1-(2-{2[4-(1-Isopropylamino-ethyl)-phenyl]-ethylamino}-pyrimidin-4-yl)-8-phenyl-1,2,3,6-tetrahydro-pyrimido[1,2-a]pyrimidin-4-one] | ≤ 20
14 | CC(Cc1ccc(CN)cc1)Nc1nccc(N2CCC(=O)N3CC=C(c4ccccc4)N=C32)n1 (centres unmarked) [Example 63, 1-{2-[2-(4-Aminomethyl-phenyl)-1-methyl-ethylamino]-pyrimidin-4-yl}-8-phenyl-1,2,3,6-tetrahydro-pyrimido[1,2-a]pyrimidin-4-one] | ≤ 20
15 | CC(N)Cc1ccc(CC(C)Nc2nccc(N3CCC(=O)N4CC=C(c5ccccc5)N=C43)n2)cc1 (centres unmarked) [Example 64, 1-(2-{2-[4-(2-Amino-propyl)-phenyl]-1-methyl-ethylamino}-pyrimidin-4-yl)-8-phenyl-1,2,3,6-tetrahydro-pyrimido[1,2-a]pyrimidin-4-one] | ≤ 20
16 | CC(Cc1cccc(C(C)(C)N)c1)Nc1nccc(N2CCC(=O)N3CC=C(c4ccccc4)N=C32)n1 (centres unmarked) [Example 65, 1-(2-{2-[3-(1-Amino-1-methyl-ethyl)-phenyl]-1-methyl-ethylamino}-pyrimidin-4-yl)-8-phenyl-1,2,3,6-tetrahydro-pyrimido[1,2-a]pyrimidin-4-one] | ≤ 20
17 | CC(Nc1nccc(N2CC(O)Cn3c2nc(-c2ccccc2)cc3=O)n1)c1ccccc1 (centres unmarked) [Example 66, 7-Hydroxy-2-phenyl-9-[2-(1-phenyl-ethylamino)-pyrimidin-4-yl]-6,7,8,9-tetrahydro-pyrimido[1,2-a]pyrimidin-4-one] | ≤ 20
18 | O=c1cc(-c2ccccc2)cc2n1CCCN2c1ccnc(NCCc2ccccc2)n1 [Example 74, 1-(2-Phenethylamino-pyrimidin-4-yl)-8-phenyl-1,2,3,4-tetrahydro-pyrido[1,2-a]pyrimidin-6-one] | ≤ 20

Next, values leading:

Row | IC50 [µM] | Compound
19 | ≤ 20 | O=c1cc(-c2ccccc2)cc2n1CCCN2c1ccnc(NCCc2ccccc2Cl)n1 [Example 75, 1-{2-[2-(2-Chloro-phenyl)-ethylamino]-pyrimidin-4-yl}-8-phenyl-1,2,3,4-tetrahydro-pyrido[1,2-a]pyrimidin-6-one]
20 | ≤ 20 | O=c1cc(-c2ccccc2)cc2n1CCCN2c1ccnc(NCCc2c(Cl)cccc2Cl)n1 [Example 76, 1-{2-[2-(2,6-Dichloro-phenyl)-ethylamino]-pyrimidin-4-yl}-8-phenyl-1,2,3,4-tetrahydro-pyrido[1,2-a]pyrimidin-6-one]
21 | ≤ 20 | O=c1cc(-c2ccccc2)cc2n1CCCN2c1ccnc(NCCc2ccc(Cl)cc2Cl)n1 [Example 77, 1-{2-[2-(2,4-Dichloro-phenyl)-ethylamino]-pyrimidin-4-yl}-8-phenyl-1,2,3,4-tetrahydro-pyrido[1,2-a]pyrimidin-6-one]
22 | ≤ 20 | C[C@H](Nc1nccc(N2CCCn3c2cc(-c2ccccc2)cc3=O)n1)c1ccccc1 [Example 78]
23 | ≤ 20 | C[C@H](CNc1nccc(N2CCCn3c2cc(-c2ccccc2)cc3=O)n1)c1ccccc1 [Example 79]
24 | ≤ 20 | COc1ccc([C@H](C)Nc2nccc(N3CCCn4c3cc(-c3ccccc3)cc4=O)n2)cc1 [Example 80, 1-{2-[(1S)-(4-Methoxy-phenyl)-ethylamino]-pyrimidin-4-yl}-8-phenyl-1,2,3,4-tetrahydro-pyrido[1,2-a]pyrimidin-6-one]
25 | ≤ 20 | C[C@H](Nc1nccc(N2CCCn3c2cc(-c2ccccc2)cc3=O)n1)c1cccc(Br)c1 [Example 81, 1-{2-(S)-[1-(3-Bromo-phenyl)-ethylamino]-pyrimidin-4-yl}-8-phenyl-1,2,3,4-tetrahydro-pyrido[1,2-a]pyrimidin-6-one]
26 | ≤ 20 | C[C@H](Nc1nccc(N2CCCn3c2cc(-c2ccccc2)cc3=O)n1)c1cccc(N2CCNCC2)c1 [Example 82, 8-Phenyl-1-{2-(S)-[1-(3-piperazin-1-yl-phenyl) -ethylamino]-pyrimidin-4-yl}-1,2,3,4-tetrahydro-pyrido[1,2-a]pyrimidin-6-one]
27 | ≤ 20 | CC(Cc1cccc(CO)c1)Nc1nccc(N2CCCn3c2cc(-c2ccccc2)cc3=O)n1 (centres unmarked) [Example 83, 1-{2-[2-(3-Hydroxymethyl-phenyl)-1-methyl-ethylamino]-pyrimidin-4-yl}-8-phenyl-1,2,3,4-tetrahydro-pyrido[1,2-a]pyrimidin-6-one]
28 | ≤ 20 | CC(Cc1cccc(CN)c1)Nc1nccc(N2CCCn3c2cc(-c2ccccc2)cc3=O)n1 (centres unmarked) [Example 84, 1-{2-[2-(3-Aminomethyl-phenyl)-1-methyl-ethylamino]-pyrimidin-4-yl}-8-phenyl-1,2,3,4-tetrahydro-pyrido[1,2-a]pyrimidin-6-one]
29 | ≤ 20 | O=c1cc(-c2ccccc2)cc2n1CCCN2c1cc(NCCc2ccccc2)ncn1 [Example 85, 1-(6-Phenethylamino-pyrimidin-4-yl)-8-phenyl-1,2,3,4-tetrahydro-pyrido[1,2-a]pyrimidin-6-one]
